{
  "source": "patent US9320748B2",
  "about": "“Immunologically useful arginine salts” (Novartis AG, priority 2012, dated 2016)",
  "key": {"[1]": {"experiment": "Photo-stability of bulk solid", "assay_type": "physicochemical", "conditions": "irradiated 1.2 million lux-hours, 40° C., 36 hours", "procedure": "The L-arginine salt formed via the above method was tested for thermal- and photo-stability. For comparative purposes, the free base and the ammonium salt were also tested.\nThe bulk ammonium and arginine salts and the bulk free base of the compound of formula (I) were tested for photo-stability by being irradiated (1.2 million lux-hours), at 40° C. for a period of 36 hours."}, "[2]": {"experiment": "Photo-stability in 50 mM phosphate buffer solution", "assay_type": "physicochemical", "conditions": "50 mM phosphate buffer pH 6.8; irradiated 1.2 million lux-hours, 40° C., 36 hours", "procedure": "The L-arginine salt formed via the above method was tested for thermal- and photo-stability. For comparative purposes, the free base and the ammonium salt were also tested. The arginine salt and the bulk free base of the compound of formula (I) were also tested for photo-stability in a solution of 50 mM phosphate buffer (pH 6.8) by being irradiated (1.2 million lux-hours), at 40° C. for a period of 36 hours. […] The ammonium salt was not tested."}, "[3]": {"experiment": "Thermal-stability at physiological pH", "assay_type": "physicochemical", "conditions": "for degradation (thermal-stability): physiological pH (7.4), 80° C., 7 days", "procedure": "The L-arginine salt formed via the above method was tested for thermal- and photo-stability. For comparative purposes, the free base and the ammonium salt were also tested. The bulk ammonium and arginine salts and the bulk free base of the compound of formula (I) were also tested for thermal-stability at physiological pH (7.4) by heating at 80° C. for 7 days. […] This renders the ammonium salt unsuitable for use in pharmaceutical formulation and long term storage."}, "in vivo": {"experiment": "in vivo", "conditions": "mouse, im, 4 mg/kg", "procedure": "A single dose of two different formulations (one containing the free base and the other the L-arginine salt of the compound of formula (I)) adsorbed to Al—H in 10 mM histidine buffer and in the presence of 3 MenB antigens were administered intramuscularly to mice at a dose of 4 mg/kg."}, "[4]": {"experiment": "Effect of Al—H adsorption on serum peak and injection-site residence", "assay_type": "in vivo", "conditions": "adsorbed on Al—H versus non-adsorbed; mice and rats", "excerpt": "Adsorption of the compound of formula (I) on Al—H reduced its peak serum concentrations and increased residence times at sites of intramuscular injection, as found for mice and rats preclinical species. This contributes greatly on modifying and controlling the level of systemic exposure avoiding the potential problem of proinflammatory cytokines in the blood, improving safety and/or tolerability of the compounds of formula (I)."}, "[5]": {"system": "respiratory syncytial virus (RSV)", "experiment": "Anti-RSV titers after immunisation with trimeric F glycoprotein", "assay_type": "in vivo, Balb/C mice", "conditions": "3 weeks after first dose; 1, 5, 50 μg SMIP adsorbed to Al—H, 3 μg F glycoprotein", "procedure": "Trimeric F glycoprotein (3 μg) of respiratory syncytial virus (RSV) is formulated with the compound of formula (I) as a free base or as the arginine salt (1 μg, 5 μg, 50 μg) adsorbed to Al—H. For comparison the IC31™ adjuvant is also tested. Balb/C mice (6 per group) are immunized at days 0 and 21 and immune responses are assessed."}, "[6]": {"experiment": "Dynamic vapour sorption (DVS) water sorption", "assay_type": "physicochemical", "conditions": "90% relative humidity", "procedure": "Dynamic vapour sorption (DVS) experiments were conducted on the L-arginine salt obtained via the above method. […] The free base is also shown for comparison (●). DSC analysis of the arginine salt following DVS treatment was also conducted and the results pre- (♦) and post-DVS (▪) treatment are shown in FIG. 4. The free base is also shown for comparison (●). […] No form change is noted by the XRPD."}, "[7]": {"experiment": "Adsorption to aluminium phosphate adjuvant", "assay_type": "physicochemical", "procedure": "Adsorption of a L-arginine salt of the compound of formula (I) to a commercially-available aluminium phosphate adjuvant yielded an adsorption efficiency of 97% (as found by recovering the compound of formula (I) on desorption). […] However, the adsorption remained >90% when the aluminium phosphate adjuvant was treated with 10 mM potassium phosphate.\nOne formulation was prepared with 0.4 mg/ml of the compound of formula (I) of the L-arginine salt and 3 mg/ml of aluminium phosphate (expressed as Al^3+ concentration), 10 mM of histidine buffer (pH 6.5). Aluminium phosphate was treated overnight with various concentrations of potassium phosphate (10 mM, 50 mM, 100 mM, 250 mM and 500 mM) before the compound of formula (I) of the arginine salt was incubated with the aluminium phosphate."}, "[8]": {"experiment": "Adsorption to aluminium hydroxide (RP-HPLC)", "assay_type": "physicochemical", "conditions": "1 mg/ml on 3 mg/ml aluminium hydroxide", "procedure": "The adsorption efficiency of the compound was determined by RP-HPLC as being 99%."}, "[9]": {"experiment": "Adsorption to calcium phosphate adjuvant", "assay_type": "physicochemical", "conditions": "pH 6.4, no histidine buffer, 1.12 mg/ml Ca2+", "procedure": "Adsorption of a L-arginine salt of the compound of formula (I) to a commercially-available calcium phosphate adjuvant was studied at pH 6.4, without histidine buffer. Two formulations are prepared, both with 1.12 mg/ml Ca^2+ but with either 0.25 mg/ml or 0.125 mg/ml of the arginine salt. Adsorption was around 90% for both formulations."}},
  "note": "“And” between values parts separate entries of the source, which are not always exact repeats. Equal entries are not always repeated. Structures can show the parent of a compound that is named as a salt.",
  "data": [
    {"smiles": "Cc1cc(OCCOCCOCCP(=O)(O)O)ccc1CCc1cnc2c(N)nc3cc(CCC(=O)O)ccc3c2c1", "note": "[free base, 3-(5-amino-2-(2-methyl-4-(2-(2-(2-phosphonoethoxy)ethoxy)ethoxy)phenethyl)benzo[f][1,7]naphthyridin-8-yl)propanoic acid]", "values": [
      {"measurement": "degradation (photo-stability)", "setting": "[1]", "result": 12.36, "unit": "%"},
      {"measurement": "degradation (photo-stability in solution)", "setting": "[2]", "result": 23.1, "unit": "%"},
      {"measurement": "degradation (thermal-stability)", "setting": "[3]", "result": 18.1, "unit": "%"},
      {"measurement": "AUC(0-t)", "setting": "in vivo", "result": 4.54, "unit": "µM·h"},
      {"measurement": "Cmax", "setting": "in vivo", "result": 453, "unit": "nM"},
      {"measurement": "Tmax", "setting": "in vivo", "result": 0.67, "unit": "h"},
      {"measurement": "half-life", "setting": "in vivo", "result": 8.48, "unit": "h"},
      {"measurement": "peak serum concentrations", "setting": "[4]", "result": "reduced"},
      {"measurement": "residence times at sites of intramuscular injection", "setting": "[4]", "result": "increased"},
      {"measurement": "anti-RSV titers versus Al—H alone", "setting": "[5]", "result": "increased compared to Al—H alone"}
    ]},
    {"smiles": "Cc1cc(OCCOCCOCCP(=O)(O)O)ccc1CCc1cnc2c(N)nc3cc(CCC(=O)O)ccc3c2c1", "note": "[ammonium salt]", "values": [
      {"measurement": "degradation (photo-stability)", "setting": "[1]", "result": 4.6, "unit": "%"}
    ]},
    {"smiles": "Cc1cc(OCCOCCOCCP(=O)(O)O)ccc1CCc1cnc2c(N)nc3cc(CCC(=O)O)ccc3c2c1", "note": "[arginine salt, arginine salt of 3-(5-amino-2-(2-methyl-4-(2-(2-(2-phosphonoethoxyl)ethoxy)ethoxy)phenethyl)benzo[f][1,7]naphthyridin-8-yl)propanoic acid]", "values": [
      {"measurement": "degradation (photo-stability)", "setting": "[1]", "result": 9.7, "unit": "%"},
      {"measurement": "degradation (photo-stability in solution)", "setting": "[2]", "result": 9.8, "unit": "%"},
      {"measurement": "stability at high temperatures, compared with other form", "setting": "[3]; high temperatures (80° C.), as in autoclaving", "result": "more stable than the ammonium salt"},
      {"measurement": "degradation (thermal-stability)", "setting": "[3]", "result": 0.1, "unit": "%"},
      {"measurement": "water taken on (DVS)", "setting": "[6]", "result": "approximately 18%"},
      {"measurement": "water taken on (DVS)", "setting": "[6]; 4 g sample", "result": "approximately 13.71%"},
      {"measurement": "% Adsorption", "setting": "[7]; aluminium phosphate pre-treated with 10 mM potassium phosphate, listed as L-arginine salt", "result": "93 ± 1", "unit": "%"},
      {"measurement": "% Adsorption", "setting": "[7]; aluminium phosphate pre-treated with 50 mM potassium phosphate", "result": "81.6 ± 0.1", "unit": "%"},
      {"measurement": "% Adsorption", "setting": "[7]; aluminium phosphate pre-treated with 100 mM potassium phosphate", "result": "60 ± 2", "unit": "%"},
      {"measurement": "% Adsorption", "setting": "[7]; aluminium phosphate pre-treated with 250 mM potassium phosphate", "result": "52 ± 0.1", "unit": "%"},
      {"measurement": "% Adsorption", "setting": "[7]; aluminium phosphate pre-treated with 500 mM potassium phosphate", "result": "65 ± 4", "unit": "%"},
      {"measurement": "% Adsorption", "setting": "[7]; aluminium phosphate, no potassium phosphate pre-treatment (0 mM), 0.4 mg/ml compound, 3 mg/ml Al3+, 10 mM histidine pH 6.5, listed as L-arginine salt", "result": "97% and 97 ± 1%"},
      {"measurement": "adsorption efficiency", "setting": "[8]", "result": 99, "unit": "%"},
      {"measurement": "Adsorption", "setting": "[9]; 0.125 mg/ml arginine salt", "result": "around 90%"},
      {"measurement": "Adsorption", "setting": "[9]; 0.25 mg/ml arginine salt", "result": "around 90%"},
      {"measurement": "anti-RSV titers versus Al—H alone", "setting": "[5]", "result": "increased compared to Al—H alone"},
      {"measurement": "anti-RSV titers, arginine salt versus free base", "setting": "[5]", "result": "slightly higher titers than the free base"}
    ]}
  ]
}
